pIC50: −log10 of the molar value.
Target: p38a activated, mitogen-activated protein kinase-activated protein kinase 2 (MAPKAP-K2 or MK2) enzyme (Homo sapiens (Human), UniProt P49137)
Test: MK2 Omnia continuous-read kinase assay for compound potency
Type: biochemical
Conditions: [MK-2]=0.4 nM, [ATP]=10 μM, [ST3-Sox]=10 μM; room temperature
Description: Mitogen-Activated Protein Kinase-Activated Protein Kinase 2 Omnia® Assay for Compound Potency Assessment:
The protocol below describes a continuous-read kinase assay optimized to measure potency of compounds against p38a activated, mitogen-activated protein kinase-activated protein kinase 2 (MAPKAP-K2 or MK2) enzyme. Further details of this assay are described by Life Technologies, Carlsbad, CA on their website at the following URL: http://tools.lifetechnologies.com/content/sfs/manuals/omnia_kinase_assay_man.pdf. • [Reagent] used: • [MK-2]=0.4 nM, • [ATP]=10 μM and • [ST3-Sox]=10 μM (ATP^appKM=10 μM)
Briefly, 10× stock solutions of MK2 (PV3317, from Life Technologies), 1.13X ATP (AS001A), and Sox conjugated peptide substrate, S/T3-Sox, (KZN1031) were prepared in 1× kinase reaction buffer consisting of 20 mM Tris, pH 7.5, 5 mM MgCl2, 1 mM EGTA, 5 mM β-glycerophosphate, 5% glycerol (10× stock, KB001A) and 0.2 mM DTT (DS001A). Enzyme solution (5 μL) was added to each of DMSO ([…]) or serially diluted test compounds prepared in DMSO in a Corning (#3574) 384-well, white, non-binding surface microtiter plate (Corning, NY). Kinase reactions were started with the addition of 45 μL of the ATP-peptide substrate S/T3-Sox mix and monitored every 71 seconds for 120 minutes at λex360/λem485 in a Synergy H4 plate reader from BioTek (Winooski, VT) at room temperature.
Background signals from the no enzyme control wells were subtracted from all progress curves. The initial linear portions of the net progress curves were fit according to a linear equation to yield the slope and percentage of inhibition (% inhibition) at each compound concentration. The net progress curves obtained during the first two hours of reactions were also fit according to an ascending single-exponential equation (Eq. 1) to yield kobs values at each compound concentration. Plots of % Inhibition versus inhibitor concentrations were fit according to a dose-response equation (Eq. 2) to generate IC50 and Hill slope values while plots of kobs versus inhibitor concentration were fit according to Equation 3 (Eq. 3) to generate apparent kinact/K1 values using the GraphPad PRISM software (Version 6.00; GraphPad San Diego, CA).
where F is the fluorescence intensity from the plate reader, V0 is a constant reflecting the relationship between the instrument readout and product concentration, t is time, e is Euler's number, and kobs is the observed inactivation rate constant.
where % Inhibition is percentage of inhibition, IC50 is half maximal inhibitory concentration, [I] is the inhibitor concentration, and n is the Hill slope.
where kobs is the observed inactivation rate constant, kinact is the apparent inactivation rate constant, K1 is the apparent inhibition constant, and [I] is the inhibitor concentration. […] Potency results for the compounds tested are shown in Table 4 in the column entitled “MK2 IC50.”

p38a activated, mitogen-activated protein kinase-activated protein kinase 2 (MAPKAP-K2 or MK2) enzyme, sequence (P49137 whole entry): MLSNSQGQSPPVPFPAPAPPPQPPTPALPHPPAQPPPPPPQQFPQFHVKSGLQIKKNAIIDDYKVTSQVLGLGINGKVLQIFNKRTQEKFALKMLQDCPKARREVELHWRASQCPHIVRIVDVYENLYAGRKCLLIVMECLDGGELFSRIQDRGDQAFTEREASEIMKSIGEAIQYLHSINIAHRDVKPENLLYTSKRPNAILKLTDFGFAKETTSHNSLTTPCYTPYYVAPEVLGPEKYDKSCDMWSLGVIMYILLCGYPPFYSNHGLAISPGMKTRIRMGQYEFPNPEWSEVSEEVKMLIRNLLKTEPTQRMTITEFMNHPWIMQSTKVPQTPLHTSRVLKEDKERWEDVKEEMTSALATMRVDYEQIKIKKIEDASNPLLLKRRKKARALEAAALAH

| SMILES | pIC50 |
| --- | --- |
| C=Cc1cc(-c2ccc3c(ccc4sc5c(c43)NC[C@@H](C)NC5=O)n2)c(OC)cn1 [Example I-256, (R)-3-(5-methoxy-2-vinylpyridin-4-yl)-10-methyl-9,10,11,12-tetrahydro-8H-[1,4]diazepino[5′,6′:4,5]thieno[3,2-f]quinolin-8-one] | 7.70 |
| C#Cc1cc(-c2ccc3c(ccc4sc5c(c43)NC[C@@H](C)NC5=O)n2)cc(N2CCC2)n1 [Example I-180, (R)-3-(2-(azetidin-1-yl)-6-ethynylpyridin-4-yl)-10-methyl-9,10,11,12-tetrahydro-8H-[1,4]diazepino[5′,6′:4,5]thieno[3,2-f]quinolin-8-one] | 6.74 |
| CC#Cc1ncc(F)c(-c2ccc3c(ccc4sc5c(c43)NC[C@@H](C)NC5=O)n2)n1 [Example I-44, (R)-3-(5-fluoro-2-(prop-1-yn-1-yl)pyrimidin-4-yl)-10-methyl-9,10,11,12-tetrahydro-8H-[1,4]diazepino[5′,6′:4,5]thieno[3,2-f]quinolin-8-one] | 6.00 |
| C=C(F)c1cc(-c2ccc3c(ccc4sc5c(c43)NC[C@@H](C)NC5=O)n2)ccn1 [Example I-108, (R)-3-(2-(1-fluorovinyl)pyridin-4-yl)-10-methyl-9,10,11,12-tetrahydro-8H-[1,4]diazepino[5′,6′:4,5]thieno[3,2-f]quinolin-8-one] | 6.91 |
| C[C@@H]1CNc2c(sc3ccc4nc(-c5cc(Cl)nc(C6=CCN(C)CC6)c5)ccc4c23)C(=O)N1 [Example I-100, (R)-3-(6-chloro-1′-methyl-1′,2′,3′,6′-tetrahydro-[2,4′-bipyridin]-4-yl)-10-methyl-9,10,11,12-tetrahydro-8H-[1,4]diazepino[5′,6′:4,5]thieno[3,2-f]quinolin-8-one] | 7.21 |
| C=Cc1cc(-c2ccc3c(ccc4sc5c(c43)NC[C@@H](C)NC5=O)n2)c(COCC)cn1 [Example I-262, (R)-3-(5-(ethoxymethyl)-2-vinylpyridin-4-yl)-10-methyl-9,10,11,12-tetrahydro-8H-[1,4]diazepino[5′,6′:4,5]thieno[3,2-f]quinolin-8-one] | 7.46 |
| C#Cc1cc(-c2ccc3c(ccc4sc5c(c43)NC[C@@H](C)NC5=O)n2)c(OCCN2CCOCC2)nn1 [Example I-134, (R)-3-(6-ethynyl-3-(2-morpholinoethoxy)pyridazin-4-yl)-10-methyl-9,10,11,12-tetrahydro-8H-[1,4]diazepino[5′,6′:4,5]thieno[3,2-f]quinolin-8-one] | 6.86 |
| C/C=C\c1ncc(F)c(-c2ccc3c(ccc4sc5c(c43)NC[C@@H](C)NC5=O)n2)n1 [Example I-46, (R,Z)-3-(5-fluoro-2-(prop-1-en-1-yl)pyrimidin-4-yl)-10-methyl-9,10,11,12-tetrahydro-8H-[1,4]diazepino[5′,6′:4,5]thieno[3,2-f]quinolin-8-one] | 6.12 |
| C#Cc1cc(-c2ccc3c(ccc4sc5c(c43)NC[C@@H](C)NC5=O)n2)c(N(C)C)nn1 [Example I-105, (R)-3-(3-(dimethylamino)-6-ethynylpyridazin-4-yl)-10-methyl-9,10,11,12-tetrahydro-8H-[1,4]diazepino[5′,6′:4,5]thieno[3,2-f]quinolin-8-one] | 6.93 |
| C=Cc1cc(-c2ccc3c(ccc4sc5c(c43)NC[C@@H](C)NC5=O)n2)c(CN2CCC(OC)CC2)cn1 [Example I-155, (R)-3-(5-((4-methoxypiperidin-1-yl)methyl)-2-vinylpyridin-4-yl)-10-methyl-9,10,11,12-tetrahydro-8H-[1,4]diazepino[5′,6′:4,5]thieno[3,2-f]quinolin-8-one] | 7.02 |
| C=Cc1nscc1-c1ccc2c(ccc3sc4c(c32)NC[C@@H](C)NC4=O)n1 [Example I-228, (R)-10-methyl-3-(3-vinylisothiazol-4-yl)-9,10,11,12-tetrahydro-8H-[1,4]diazepino[5′,6′:4,5]thieno[3,2-f]quinolin-8-one] | 6.89 |
| C#Cc1cc(-c2ccc3c(ccc4sc5c(c43)NC[C@@H](C)NC5=O)n2)cc(CN2CCN(C)CC2)n1 [Example I-126, (R)-3-(2-ethynyl-6-((4-methylpiperazin-1-yl)methyl)pyridin-4-yl)-10-methyl-9,10,11,12-tetrahydro-8H-[1,4]diazepino[5′,6′:4,5]thieno[3,2-f]quinolin-8-one] | 7.47 |
| C#Cc1cc(-c2ccc3c(ccc4sc5c(c43)NC[C@@H](C)NC5=O)n2)c(NC)nn1 [Example I-104, (R)-3-(6-ethynyl-3-(methylamino)pyridazin-4-yl)-10-methyl-9,10,11,12-tetrahydro-8H-[1,4]diazepino[5′,6′:4,5]thieno[3,2-f]quinolin-8-one] | 6.71 |
| CCOCc1nc(Cl)cc(-c2ccc3c(ccc4sc5c(c43)NC[C@@H](C)NC5=O)n2)n1 [Example I-30, (R)-3-(6-chloro-2-(ethoxymethyl)pyrimidin-4-yl)-10-methyl-9,10,11,12-tetrahydro-8H-[1,4]diazepino[5′,6′:4,5]thieno[3,2-f]quinolin-8-one] | 7.80 |
| C[C@@H]1CNc2c(sc3ccc4nc(-c5cc(Cl)ncc5F)ccc4c23)C(=O)N1 [Example I-69, (R)-3-(2-chloro-5-fluoropyridin-4-yl)-10-methyl-9,10,11,12-tetrahydro-8H-[1,4]diazepino[5′,6′:4,5]thieno[3,2-f]quinolin-8-one] | 7.57 |
| C=C(F)c1ncc(F)c(-c2ccc3c(ccc4sc5c(c43)NC[C@@H](C)NC5=O)n2)n1 [Example I-31, (R)-3-(5-fluoro-2-(1-fluorovinyl)pyrimidin-4-yl)-10-methyl-9,10,11,12-tetrahydro-8H-[1,4]diazepino[5′,6′:4,5]thieno[3,2-f]quinolin-8-one] | 7.62 |

Now those with a higher pIC50, led by results:

| pIC50 | SMILES |
| --- | --- |
| 8.40 | [2H]c1c(C=C)ncc(C([2H])([2H])[2H])c1-c1ccc2c(ccc3sc4c(c32)NC[C@@H](C)NC4=O)n1 [Example I-249, (R)-10-methyl-3-(5-(methyl-d3)-2-vinylpyridin-4-yl-3-d)-9,10,11,12-tetrahydro-8H-[1,4]diazepino[5′,6′:4,5]thieno[3,2-f]quinolin-8-one] |
| 8.70 | C=Cc1nc(C)nn1-c1ccc2c(ccc3sc4c(c32)NC[C@@H](C)NC4=O)n1 [Example I-224, (R)-10-methyl-3-(3-methyl-5-vinyl-1H-1,2,4-triazol-1-yl)-9,10,11,12-tetrahydro-8H-[1,4]diazepino[5′,6′:4,5]thieno[3,2-f]quinolin-8-one] |
| 7.96 | C=Cc1cc(-c2ccc3c(ccc4sc5c(c43)NC[C@@H](C)NC5=O)n2)cc(CN2CCC(OC)CC2)n1 [Example I-121, (R)-3-(2-((4-methoxypiperidin-1-yl)methyl)-6-vinylpyridin-4-yl)-10-methyl-9,10,11,12-tetrahydro-8H-[1,4]diazepino[5′,6′:4,5]thieno[3,2-f]quinolin-8-one] |
| 7.96 | C=Cc1nc(CO)cc(-c2ccc3c(ccc4sc5c(c43)NC[C@@H](C)NC5=O)n2)n1 [Example I-85, (R)-3-(6-(hydroxymethyl)-2-vinylpyrimidin-4-yl)-10-methyl-9,10,11,12-tetrahydro-8H-[1,4]diazepino[5′,6′:4,5]thieno[3,2-f]quinolin-8-one] |
| 8.52 | C=Cc1cc(-c2ccc3c(ccc4sc5c(c43)NC[C@@H](C)NC5=O)n2)c(C(=O)OC)nn1 [Example I-137, methyl (R)-4-(10-methyl-8-oxo-9,10,11,12-tetrahydro-8H-[1,4]diazepino[5′,6′:4,5]thieno[3,2-f]quinolin-3-yl)-6-vinylpyridazine-3-carboxylate] |
| 8.22 | COCc1nc(Cl)cc(-c2ccc3c(ccc4sc5c(c43)NC[C@@H](C)NC5=O)n2)n1 [Example I-7, (R)-3-(6-chloro-2-(methoxymethyl)pyrimidin-4-yl)-10-methyl-9,10,11,12-tetrahydro-8H-[1,4]diazepino[5′,6′:4,5]thieno[3,2-f]quinolin-8-one] |
| 8.15 | C=Cc1nc(C(F)(F)F)nn1-c1ccc2c(ccc3sc4c(c32)NC[C@@H](C)NC4=O)n1 [Example I-226, (R)-10-methyl-3-(3-(trifluoromethyl)-5-vinyl-1H-1,2,4-triazol-1-yl)-9,10,11,12-tetrahydro-8H-[1,4]diazepino[5′,6′:4,5]thieno[3,2-f]quinolin-8-one] |

Source: patent publication US20240190890A1, “MK2 INHIBITORS AND USES THEREOF” (Bristol-Myers Squibb Company, priority 2022, published 2024)
